From PMC12974487, “Inhibition of FicD-mediated AMPylation and deAMPylation by isoprenoid diphosphates” (Proceedings of the National Academy of Sciences of the …, 2026)

Molecular target: T1, FicD^H363A (Homo sapiens, UniProt Q9BVA6, H363A)
T1 construct: soluble ER luminal domain (residues 105 to 458) of wild-type human FicD and three mutants; 6xHis-Sumo (N, cleaved yes); made in house; host or cells: Rosetta(DE3) E. coli
T1 sequence (Q9BVA6 105-458 H363A): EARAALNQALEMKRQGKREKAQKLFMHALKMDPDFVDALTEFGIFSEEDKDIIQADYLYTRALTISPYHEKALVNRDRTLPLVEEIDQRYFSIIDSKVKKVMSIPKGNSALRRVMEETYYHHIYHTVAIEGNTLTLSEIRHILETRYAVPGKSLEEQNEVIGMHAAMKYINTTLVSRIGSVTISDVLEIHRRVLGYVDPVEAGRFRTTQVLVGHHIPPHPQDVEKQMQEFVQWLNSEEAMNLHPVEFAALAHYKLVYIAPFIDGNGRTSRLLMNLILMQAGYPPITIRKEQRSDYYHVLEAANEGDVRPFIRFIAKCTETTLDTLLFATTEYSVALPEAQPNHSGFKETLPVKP
Assay: MIDAS metabolite screen, FicD^H363A
Assay type: binding
Settings: cutoff Q < 0.05 and |Log2 corrected fold change| > 2, metabolites 5 µM
Excerpt: To identify small-molecule metabolite interactions with FicD, we applied an unbiased high-throughput screening approach known as MIDAS ([44]). Given the high concentrations of protein required for MIDAS screening, we purified the soluble ER luminal domain (residues 105 to 458) of wild-type human FicD and three mutants FicD^E234G, FicD^L258D, and FicD^H363A for screening (Fig. 1A). These mutants were selected based on their well-established biochemical features ([23], [24], [31]). All three are predicted to enhance detection of protein–metabolite interactions (PMIs) relative to FicD^WT through increased affinity for nucleotide substrates (FicD^E234G), improved solubility (FicD^L258D), and loss of catalytic turnover (FicD^H363A) (Fig. 1A). To decrease the potential for nonspecific small-molecule binding, we ensured the purity of our FicD proteins (SI Appendix, Fig. S1 A and B). As reported by other investigators ([24], [31]), we observe an increase in elution volume of the FicD^L258D mutant, consistent with its monomerization (SI Appendix, Fig. S1C).
Out of the 602 naturally occurring human metabolites in the MIDAS library, we applied a significance cutoff (q value < 0.05) to identify 12 PMIs with a Log2 (corrected fold change) of >2 and two PMIs with a Log2 (corrected fold change) <-2 in the FicD^WT screen (Fig. 1B and SI Appendix, Table S2). Hits were additionally triaged based on detection of multiple adducts of the metabolite in a single dataset (FPP and […] in Fig. 1B) and identification of the same metabolites across three or more of the FicD construct screens (Fig. 1C). Three chemical classes passed this initial triage: adenosine nucleotides, isoprenoid diphosphates, and thyroid hormone intermediates (Fig. 1 B and C and SI Appendix, Tables S2–S5).
22°C. Induced cultures were then harvested by centrifugation at 8000G for 15 minutes at 4°C and […]
Bacterial pellets were resuspended in 30-50mL of 50mM Tris pH 7.4/150mM NaCl/10% glycerol with one Roche cOmplete EDTA-Free Protease inhibitor cocktail tablet (cat no. COEDTAF-RO).
Triton-X100 to a final concentration of 0.2%, Chicken-egg lysozyme to a final concentration of 0.4ug/mL, and 2-5uL of Millipore Benzonase Nuclease (cat no. 70664) were added to bacterial suspension prior to sonication at 40-50% amplitude for 1-3 minutes in pulses of 5 seconds on and 30 seconds off on ice with a Sonics VCX 750 Ultrasonicator. Bacterial lysate was then clarified by centrifugation at 30,000 x g for 30 minutes at 4°C.
Clarified lysate was rotated with Qiagen NiNTA agarose beads (cat no. 30210) for 1-2 hours at 4°C. […]

| SMILES | MIDAS protein-metabolite interaction (enrichment/depletion) |
| --- | --- |
| Nc1ncnc2c1ncn2[C@@H]1O[C@H](COP(=O)(O)OP(=O)(O)O)[C@@H](O)[C@H]1O [ADP] | significantly enriched |
| CC(C)=CCC/C(C)=C/CC/C(C)=C/COP(=O)(O)OP(=O)(O)O [FPP, farnesyl-pyrophosphate] | significantly enriched |
| CC(C)=CCC/C(C)=C/COP(=O)(O)OP(=O)(O)O [GPP, geranyl-pyrophosphate] | significantly enriched |
